Source: publication PMC11546610, “Molecular Modeling and In Vitro Functional Analysis of the RGS12 PDZ Domain Variant Associated with High-Penetrance Familial Bipolar Disorder” (International Journal of Molecular Sciences, 2024)
One block for each molecule: values may come before it. Residues, ends and D or L forms follow the SMILES beside them. No end group written: not given here. *: point of attachment. Biotin = O=C1N[C@H]2[C@H](CS[C@H]2CCCCC(=O)*)N1; Ahx = NCCCCCC(=O)O

Key:
[1] = test system: isolated rat RGS12 PDZ domain (recombinant GST-fusion protein); parameters: method as in PMID 9651375, PMID 17380122, PMID 11771424; settings: C-terminal tail peptide; ref [19],[42],[65]; cited from earlier work
[2] = biological target: T1, wildtype RGS12 PDZ domain GST-fusion protein (Homo sapiens, UniProt O14924); assay: SPR single-cycle kinetics (Alto), wildtype PDZ domain; assay type: binding; settings: single trace in figure, 111 nM–9 μM analyte, PBS pH 7.3, 1:1 Langmuir with mass transport limitation, read-out: apparent on-rate (ka)
T1 construct: human RGS12 PDZ domain (aa 18–101 of UniProt O14924); purchased GenScript; host or cells: E. coli
T1 sequence (O14924 18-101): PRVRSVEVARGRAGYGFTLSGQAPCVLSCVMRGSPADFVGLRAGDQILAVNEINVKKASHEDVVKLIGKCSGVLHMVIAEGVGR
Procedure: (§1) Wildtype and R59Q-variant versions of the human RGS12 PDZ domain (aa 18–101 of UniProt O14924) were each cloned in frame with an N-terminal glutathione-S-transferase (GST) expression tag, expressed by E. coli fermentation, and purified by GST-affinity column and size-exclusion column chromatographies by GenScript. These recombinant GST-fusion proteins were stored at −80 °C in a storage buffer (150 mM NaCl, 10 mM Tris-HCl pH 7.6, 1 mM EDTA, 5 mM DTT, and 10% glycerol) prior to thawing and supplementation with 0.1% (final) Tween 20 for use in the SPR experiments.
Biotinylated peptides were separately immobilized onto streptavidin-coated gold nanosensor particles (Nicoya) in lane pairs. […] All on-board dilutions and experimental passages of analytes over immobilized peptides were performed with a running buffer consisting of phosphate-buffered saline (137 mM NaCl, 2.7 mM KCl, 4.3 mM disodium phosphate, 1.4 mM monopotassium phosphate; and pH 7.3, from Teknova) supplemented with 0.1% Tween 20 (Nicoya), […] (w/v) bovine serum albumin (BSA; Nicoya), and 3% glycerol (the latter to reduce bulk-shift readings when transitioning from running buffer to protein analyte injections). […] Observed maximal response units (Rmax) and calculated KD values for each single-stack injection were plotted using GraphPad Prism 10.

[3] = biological target: T2, R59Q-variant RGS12 PDZ domain GST-fusion protein (Homo sapiens, UniProt O14924, R59Q); assay: SPR single-cycle kinetics (Alto), R59Q-variant PDZ domain; assay type: binding; settings: for KD of R59Q variant relative to wildtype (fold less than the wildtype) / maximal binding signal (Rmax), R59Q in comparison to wildtype: R59Q vs wildtype, peptide biosensors, N = 2-4; for kon: R59Q, single trace in figure, 111 nM–9 μM analyte, PBS pH 7.3, 1:1 Langmuir with mass transport limitation, read-out: apparent on-rate (ka)
T2 construct: human RGS12 PDZ domain (aa 18–101 of UniProt O14924); purchased GenScript; host or cells: E. coli
T2 sequence (O14924 18-101 R59Q): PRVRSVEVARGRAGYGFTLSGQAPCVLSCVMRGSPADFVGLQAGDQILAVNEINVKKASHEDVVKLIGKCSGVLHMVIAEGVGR
Procedure: as §1
Biotinylated peptides were separately immobilized onto streptavidin-coated gold nanosensor particles (Nicoya) in lane pairs. The reference sensor of the lane held either immobilized mNotch1 or rβ2AR peptide as an established negative control surface, and the test sensor held one of the candidate PDZ domain-interacting peptides. All on-board dilutions and experimental passages of analytes over immobilized peptides were performed with a running buffer consisting of phosphate-buffered saline (137 mM NaCl, 2.7 mM KCl, 4.3 mM disodium phosphate, 1.4 mM monopotassium phosphate; and pH 7.3, from Teknova) supplemented with 0.1% Tween 20 (Nicoya), […] (w/v) bovine serum albumin (BSA; Nicoya), and 3% glycerol (the latter to reduce bulk-shift readings when transitioning from running buffer to protein analyte injections). […] Each sensor was regenerated between each single-stack passage by the injection of a surface regeneration buffer (10 mM NaOH). Non-specific binding to the paired, negative control peptide-bound streptavidin surface was subtracted from each single-stack curve and then binding parameters of the on-rate (ka), off-rate (kd), and dissociation constant (KD) were calculated using the 1:1 Langmuir kinetics model with mass transport limitation (Alto software version 2.3.1; Nicoya). Observed maximal response units (Rmax) and calculated KD values for each single-stack injection were plotted using GraphPad Prism 10.

[4] = test system: RGS12 PDZ domain protein fusions; settings: yeast two-hybrid, far-western blotting, SPR; ref [19]; cited from earlier work
From the text: In our initial report identifying the PDZ domain within RGS12, we characterized its binding selectivity as being directed toward C-terminal (A/S)-T-X-(L/V) peptide motifs. […] Our subsequent report, characterizing RGS12 as a neuronal Ras/MAPK ...

[5] = test system: recombinant RGS12 PDZ domain protein; settings: biotinylated peptide immobilized on streptavidin chip to 350 RU; 10 mM HEPES pH 7.4, 250 mM NaCl, 0.05% Nonidet P-40, 50 μM EDTA; analyte 300 μM (10 nM to 500 μM); mNotch1 surface subtracted
Procedure: Optical detection of real-time protein–peptide interactions by surface plasmon resonance was performed using a Biacore 3000 (Cytiva; Marlborough, MA, USA), as per previously described methods [65, 105, 106]. Briefly, biotinylated peptides were separately immobilized on streptavidin-coated SPR chips (Cytiva) to 350 resonance units (RUs). All experiments were performed with the sensor surface, fluidics, and pump equilibrated with Biacore running buffer (10 mM HEPES pH 7.4, 250 mM NaCl, 0.05% (v/v) Nonidet P-40, and 50 μM EDTA). Increasing concentrations (10 nM to 500 μM) of recombinant RGS12 PDZ domain protein (expressed from E. coli culture and purified as previously described in ref. [65]) were separately injected at a flow rate of 10 μL/min with a 300 s dissociation phase. The surface was regenerated between each test concentration by the injection of a denaturing regeneration buffer (1 M NaCl, 50 mM NaOH). Non-specific binding to a biotinylated mNotch1 peptide-bound streptavidin surface was subtracted from each curve (BIA-evaluation Version 3.0 software, Cytiva). Maximal response units for each injection were plotted using GraphPad Prism 5.0.

[6] = test system: wildtype RGS12 PDZ domain; settings: prior SPR assays; ref [19],[42],[65]; cited from earlier work
From the text: Table 1 Heat map of GLIDE SP-peptide and GLIDE XP scores for predicted docking of four pentameric ligands into the ligand-binding “receptor grid” specified for each of the 20 low-energy structural models (“poses”) of the human RGS12 PDZ domain recorded within PDB id 2KV8. […] Each of the three C-tail ligands was synthesized as an N-terminally biotin-tagged polypeptide and used to create gold nanoparticle biosensors for measuring the binding of these recombinant GST-RGS12 PDZ domain fus ...

[7] = test system: HA-epitope tagged RGS12 full-length protein; assay: Co-immunoprecipitation of RGS12 and SAPAP3 in HEK293T cells; assay type: binding
Procedure: Monolayer cultures of the immortalized human embryonic kidney cell line HEK293T (ATCC CRL-3216) were transfected at 75–90% confluence using FuGENE6 transfection reagent (Promega; Madison, WI, USA), according to the manufacturer’s instructions, with 0.5 μg of pcDNA3.1-Flag-SAPAP3 expression plasmid DNA and/or 0.5 μg of pcDNA3.1-HA-RGS12 expression plasmid DNA [103]. Forty-eight hours later, the transfected cells were lysed with ice-cold Triton-X lysis buffer (20 mM Tris-HCl pH 7.5, 150 mM NaCl, 1 mM EDTA, 1 mM EGTA, and 1% Triton X-100, supplemented with protease inhibitors). The lysates were clarified by centrifugation (16,000× g) and then incubated overnight at 4 °C with […] of HA- or Flag-epitope tag-specific antibody followed by precipitation with protein-A/G beads (Santa Cruz Biotechnology; Dallas, TX, USA). The beads were washed 3 times with ice-cold lysis buffer and the proteins were eluted in Laemmli buffer. The samples were resolved on 4–12% precast SDS-polyacrylamide gels (Novex/Invitrogen; ThermoFisher Scientific, Waltham, MA, USA), transferred to nitrocellulose, and immunoblotted with horseradish peroxidase (HRP)-conjugated primary antibodies to HA- or Flag-epitope tags and visualized by ECL chemiluminescence (GE Healthcare; Chicago, IL, USA).

[8] = biological target: T3, CXCR2 C-terminal peptide, biotin-Ahx-VGSSSGHTSTTL-carboxylic acid (SMILES …); assay: SPR; Alto 8 × 2 digital microfluidics SPR (Nicoya); biotinylated peptides immobilised on streptavidin-coated gold nanosensors; GST-RGS12 PDZ fusion protein as analyte, single-cycle kinetics, 111 nM-9 μM; PBS pH 7.3 with 0.1% Tween 20, BSA, 3% glycerol; mNotch1 or rβ2AR reference sensor subtracted; 1:1 Langmuir model with mass transport limitation; apparent rates, estimated KD; settings: both partners purified
T3 construct: C-terminus of CXCR2; also called CXCR2 C-tail peptide TSTTL-COOH; CXCR2 TSTTL-COOH biosensor; source: synthetic peptide (GenScript)
T3 peptide: {Biotin-Ahx}-VGSSSGHTSTTL-OH

[9] = biological target: T4, MEK2 C-terminal peptide, biotin-Ahx-RTLRLKQPSTPTRTAV-carboxylic acid (rat, SMILES …); assay: as above; settings: both partners purified
T4 construct: C-terminus of MEK2; also called MEK2 C-tail; TRTAV-COOH of MEK2; source: synthetic peptide (GenScript)
T4 peptide: {Biotin-Ahx}-RTLRLKQPSTPTRTAV-OH

[10] = biological target: T5, SAPAP3 C-terminal peptide, biotin-Ahx-IYIPEAQTRL-carboxylic acid (human, SMILES …); assay: as above; settings: both partners purified
T5 construct: C-terminus of SAPAP3; the last ten residues of the human 20-mer aa 960-979; also called SAPAP3 C-tail peptide AQTRL-COOH; source: synthetic peptide (GenScript)
T5 peptide: {Biotin-Ahx}-IYIPEAQTRL-OH

Molecule: VGSSSANTSTTL-OH [C-terminal tail of rat CXCR2, 12-mer]
SPR binding to rat RGS12 PDZ domain (in words) [1]: direct and selective binding

kon [2]: 1210 M⁻¹ s⁻¹
KD of R59Q variant relative to wildtype (fold less than the wildtype) [3]: at least 2 fold
maximal binding signal (Rmax), R59Q in comparison to wildtype [3]: less maximal binding signal (Rmax)
kon [3]: 1500 M⁻¹ s⁻¹
Molecule: CC(C)C[C@H](NC(=O)[C@@H](NC(=O)[C@@H](NC(=O)[C@H](CO)NC(=O)[C@@H](NC(=O)[C@H](Cc1c[nH]cn1)NC(=O)CNC(=O)[C@H](CO)NC(=O)[C@H](CO)NC(=O)[C@H](CO)NC(=O)CNC(=O)[C@@H](NC(=O)CCCCCNC(=O)CCCC[C@@H]1SC[C@@H]2NC(=O)N[C@@H]21)C(C)C)[C@@H](C)O)[C@@H](C)O)[C@@H](C)O)C(=O)O ({Biotin-Ahx}-VGSSSGHTSTTL-OH)

kon [2]: 1490 M⁻¹ s⁻¹
KD of R59Q variant relative to wildtype (fold less than the wildtype) [3]: at least 2 fold
maximal binding signal (Rmax), R59Q in comparison to wildtype [3]: less maximal binding signal (Rmax)
kon [3]: 15400 M⁻¹ s⁻¹
Molecule: CC[C@H](C)[C@H](NC(=O)CCCCCNC(=O)CCCC[C@@H]1SC[C@@H]2NC(=O)N[C@@H]21)C(=O)N[C@@H](Cc1ccc(O)cc1)C(=O)N[C@H](C(=O)N1CCC[C@H]1C(=O)N[C@@H](CCC(=O)O)C(=O)N[C@@H](C)C(=O)N[C@@H](CCC(N)=O)C(=O)N[C@H](C(=O)N[C@@H](CCCNC(=N)N)C(=O)N[C@@H](CC(C)C)C(=O)O)[C@@H](C)O)[C@@H](C)CC ({Biotin-Ahx}-IYIPEAQTRL-OH)

Molecule: TSTTL-COOH [CXCR2 C-tail pentamer used in docking and MD]
binding to RGS12 PDZ domain fusions (in words) [4]: specific binding was observed

SPR binding of recombinant RGS12 PDZ domain (in words) [5]: bound specifically
Molecule: biotin-NH-SATESADSIEIYIPEAQTRL-carboxylic acid

Molecule: biotin-Ahx-PSQITHIPEAFK-carboxylic acid [mouse Notch1]
binding of negative control to RGS12 PDZ domain (in words) [6]: no demonstrable affinity

SPR binding of recombinant RGS12 PDZ domain (in words) [5]: no appreciable binding
Molecule: biotin-NH-SATESADSIEIYIPEAQSRL-amide

Molecule: RTLRLKQPSTPTRTAV-OH [C-terminal tail of rat MEK2, 16-mer]
SPR binding to rat RGS12 PDZ domain (in words) [1]: direct and selective binding

Molecule: biotin-Ahx-QGRNCNTNDSPL-carboxylic acid [rat beta2-adrenergic receptor]
binding of negative control to RGS12 PDZ domain (in words) [6]: no demonstrable affinity

B1: Flag-epitope tagged SAPAP3: Flag-epitope tagged SAPAP3 full-length protein expressed in HEK293T cells (protein, UniProt O95886 1-979, looked up)
chain: MRGYHGDRGSHPRPARFADQQHMDVGPAARAPYLLGSREAFSTEPRFCAPRAGLGHISPEGPLSLSEGPSVGPEGGPAGAGVGGGSSTFPRMYPGQGPFDTCEDCVGHPQGKGAPRLPPTLLDQFEKQLPVQQDGFHTLPYQRGPAGAGPGPAPGTGTAPEPRSESPSRIRHLVHSVQKLFAKSHSLEAPGKRDYNGPKAEGRGGSGGDSYPGPGSGGPHTSHHHHHHHHHHHHQSRHGKRSKSKDRKGDGRHQAKSTGWWSSDDNLDSDSGFLAGGRPPGEPGGPFCLEGPDGSYRDLSFKGRSGGSEGRCLACTGMSMSLDGQSVKRSAWHTMMVSQGRDGYPGAGPGKGLLGPETKAKARTYHYLQVPQDDWGGYPTGGKDGEIPCRRMRSGSYIKAMGDEESGDSDGSPKTSPKAVARRFTTRRSSSVDQARINCCVPPRIHPRSSIPGYSRSLTTGQLSDELNQQLEAVCGSVFGELESQAVDALDLPGCFRMRSHSYLRAIQAGCSQDDDCLPLLATPAAVSGRPGSSFNFRKAPPPIPPGSQAPPRISITAQSSTDSAHESFTAAEGPARRCSSADGLDGPAMGARTLELAPVPPRASPKPPTLIIKTIPGREELRSLARQRKWRPSIGVQVETISDSDTENRSRREFHSIGVQVEEDKRRARFKRSNSVTAGVQADLELEGLAGLATVATEDKALQFGRSFQRHASEPQPGPRAPTYSVFRTVHTQGQWAYREGYPLPYEPPATDGSPGPAPAPTPGPGAGRRDSWIERGSRSLPDSGRASPCPRDGEWFIKMLRAEVEKLEHWCQQMEREAEDYELPEEILEKIRSAVGSTQLLLSQKVQQFFRLCQQSMDPTAFPVPTFQDLAGFWDLLQLSIEDVTLKFLELQQLKANSWKLLEPKEEKKVPPPIPKKPLRGRGVPVKERSLDSVDRQRQEARKRLLAAKRAASFRHSSATESADSIEIYIPEAQTRL
modifications: full-length Flag epitope tag
co-immunoprecipitation ([7]; IP with anti-Flag antibody, Triton-X lysis buffer pH 7.5): co-immuno-precipitate
reciprocal co-immunoprecipitation ([7]; IP with anti-HA antibody): reciprocal co-immunoprecipitation

fold change of KD against the wild type [8]: ≥ 2 fold
fold change of KD against the wild type [9]: ≥ 2 fold
fold change of KD against the wild type [10]: ≥ 2 fold
B2: R59Q-variant human RGS12 PDZ domain GST-fusion protein (domain or fragment, UniProt O14924 18-101, looked up)
chain: PRVRSVEVARGRAGYGFTLSGQAPCVLSCVMRGSPADFVGLQAGDQILAVNEINVKKASHEDVVKLIGKCSGVLHMVIAEGVGR
notes: human RGS12 PDZ domain, aa 18-101 of UniProt O14924, with the bipolar disorder-associated missense variation R59Q; R59Q is a variant found in families with bipolar disorder (Forstner et al.); also called R59Q-variant PDZ domain fusion protein; not shown: GST, N-terminal, kept
